Measurements from publication PMC8579695, “The Stringent Response Inhibits 70S Ribosome Formation in Staphylococcus aureus by Impeding GTPase-Ribosome Interactions” (mBio, 2021).

System: RA-GTPases RsgA, RbgA, Era, and HflX
Experiment: DRaCALA binding and competition assays across the four RA-GTPases
Design: species or system Staphylococcus aureus
Details: 100 μM cold competitor
Excerpt: FIG 1 Nucleotide binding characteristics of RA-GTPases. (A) Schematic representation of the domain structure of Era, RsgA, RbgA, and HflX from S. aureus. The conserved GTPase domain (G domain) is colored in green, and accessory domains are shown. (B) Determination of binding affinities and Kd values for ^32P-labeled GTP, GDP, ppGpp, and pppGpp with purified recombinant 6×His-tagged RbgA using DRaCALA, as previously described ([36]). Each point is the mean average of at least three technical replicates, and error bars indicate standard deviations. (C) Binding assay (DRaCALA) of recombinant RbgA binding to ^32P-labeled GTP, ppGpp, and pppGpp in the presence of an excess of cold competitor (GTP, GDP, ppGpp, pppGpp, or ATP). All experiments were carried out in triplicate, with error bars representing standard deviations. […]
Supplementary file : FIG S2 Examination of the binding of GDP, ppGpp, GTP, and pppGpp to RA-GTPases by DRaCALA. […] Kd values were determined from the binding curves as previously described ([36]). […]
Structural data places (p)ppGpp within the GTP-binding site of the RA-GTPase RbgA ([6]), indicating a competitive mode of inhibition. […] Based on our measured affinities (Table 1), we speculate that both GDP and ppGpp will outcompete other nucleotides for occupancy of the binding site. […]

## Nc1nc2c(ncn2[C@@H]2O[C@H](COP(=O)(O)OP(=O)(O)O)[C@@H](OP(=O)(O)OP(=O)(O)O)[C@H]2O)c(=O)[nH]1 [ppGpp]
  competition of cold unlabeled nucleotide with 32P-labeled GTP, ppGpp, pppGpp: competing more effectively
